Data taken from ChEMBL document CHEMBL4251691, “Thiazole Derivatives as Inhibitors for the Treatment of Cancer Cells Resistant” (ACS Med Chem Lett, 2018).

Target: L-lactate dehydrogenase (Homo sapiens, UniProt V9HWB9)
Assay: Inhibition of LDH (unknown origin) assessed as reduction in lactate production by cell-based assay

IC50, < 1000 nM:
CC(=O)c1cc(-c2nn(-c3nc(C(=O)O)cs3)c(CC3CC3)c2Cc2ccc(S(N)(=O)=O)c(F)c2)ccc1F, NS(=O)(=O)c1ccc(Cc2c(-c3ccc(F)c(C4=CCC(F)(F)CC4)c3)nn(-c3nc(C(=O)O)cs3)c2CC2CC2)cc1F, CC1CC=C(c2cc(-c3nn(-c4nc(C(=O)O)cs4)c(CC4CC4)c3Cc3ccc(S(N)(=O)=O)c(F)c3)ccc2F)CC1 (stereo unspecified), Cc1ccc(-c2cc(-c3nn(-c4nc(C(=O)O)cs4)c(CC4CC4)c3Cc3ccc(S(N)(=O)=O)c(F)c3)ccc2F)cc1F, CC1CCCC=C1c1cc(-c2nn(-c3nc(C(=O)O)cs3)c(CC3CC3)c2Cc2ccc(S(N)(=O)=O)c(F)c2)ccc1F (stereo unspecified), Cc1ccc(/C=C/c2cccc(-c3nn(-c4nc(C(=O)O)cs4)c(CC4CC4)c3Cc3ccc(S(N)(=O)=O)c(F)c3)c2)s1
